Entries after “also recorded” stand apart in the source; their conditions may differ.
Legend:
PC-3 cell line = assay: SRB cytotoxicity, PC-3; assay type: cell-based, human; settings: PC-3 (no AR), 144 h, up to 20 μM
Procedure: (§1) FIGS. 16-25: cytotoxic effect of compounds (R)-XXIII-2, (R)-XXIII-3, (R)-XXIII-4, (R)-XXIII-5, (R)-XXIII-6, (R)-XXIII-7, (R)-XXIII-8, (R)-XXIII-9, (R)-XXIII-10, (R)-XXIV-9 on PC-3 and DU-145 cell lines at different concentration (0.02, 0.2, 2, 20 μM) after 144 h exposure. On the x-axis is reported the concentration, while on the y-axis is reported the inhibition of the net growth (% net growth).
(§2) Sulforhodamine B (SRB) assay was used according to the method by Skehan et al. (JNCI, 1990). Briefly, cells were collected by trypsinization, counted and plated at a density of 5,000 cells/well in 96-well flat-bottomed microtiter plates (100 μl of cell suspension/well). In the chemosensitivity assay, experiments were run in octuplicate, and each experiment was repeated three times. The optical density (OD) of cells was determined at a wavelength of 490 nm by a colorimetric plate reader.
(§3) If ODtreated is above ODzero, treatment has induced a cytostatic effect, whereas if ODtreated is below ODzero, cell killing has occurred. The ODzero depicts the cell number at the moment of drug addition, the ODcontrol reflects the cell number in untreated wells and the ODtreated reflects the cell number in treated wells on the day of the assay.

[1] = test system: normal stem cells derived from human peripheral blood stem cells; assay: Colony-forming cell assay (GM-CFU); assay type: cell-based
Procedure: The colony-forming cell assay was used as previously described [Matta M R, Mangianti S, Rizzi S, Ratta M, Campanini E, Fortuna A, et al. Pharmacological purging of minimal residual disease from peripheral blood stem cell collections of acute myloblastic leukaemia patients: preclinical studies. Exp Hematol 1997; 25:1261-1269]. In brief, for each molecule, 5×10^4 cells were plated in duplicate in a complete culture medium (MethoCult H4434, StemCell Technologies, Vancouver, Canada) containing different concentrations (0.2, 2, and 20 μmol/l) of the compound. After 14 days of incubation in a humidified atmosphere of 5% CO2 at the temperature of 37° C., granulocyte macrophage colony-forming unit (GM-CFU) aggregates of more than 50 cells were counted. Control cells were incubated under the same conditions but in drug-free medium.

LNCaP-AR cells = assay: SRB in vitro chemosensitivity assay, LNCaP-AR; assay type: cell-based
Procedure: The cell lines were maintained as a monolayer at 37° C. and subcultured weekly. Culture medium was composed of RPMI 1640 supplemented with 10% fetal calf serum and 1% glutamine (Mascia Brunelli s.p.a., Milan, Italy). Cells were used in the exponential growth phase in all the experiments.
Compounds were dissolved in acetone or DMSO (AITES) ([…]) and stored at −20° C. The cell culture containing acetone at the highest concentration was used as the control.
as §2, §3
FIGS. 2-11 show the cytotoxic activity of the derivative compounds of the invention on the LNCaP and LNCaP-AR cell lines. The authors examined the antitumour activity of the compounds for which the synthesis is described above, in the hormone-sensitive prostate cancer cell line LNCaP and in its derivative cell line LNCaP-AR, expressing high level of AR and with hormone refractory prostate cancer (HRPC) features. The novel compounds were tested at the increasing concentrations of […], 0.2, 2.0, and 20.0 μM. The highest dose used was chosen on the basis of the clinically achievable peak plasma concentration reported in the literature for bicalutamide (Cockshott I D. Clin Pharmacokinet. 2004; 43(13): 855-78). After 144-hr exposure time the cytotoxic effect of the molecules was calculated according to the method of Monks et al. (Monks A, Scudiero D, Skehan P, et al. Feasibility of a high-flux anticancer drug screen using a diverse panel of cultured human tumor cell lines. J Natl Cancer Inst. 1991; 83: 757-66.)

DU145 cell line = assay: SRB cytotoxicity, DU145; assay type: cell-based, human; settings: DU145 (no AR), 144 h, up to 20 μM
Procedure: as §1, §2, §3

## N#Cc1ccc(NC(=O)[C@](O)(Cc2cccs2)CS(=O)(=O)c2ccc(F)cc2)cc1C(F)(F)F [(R)-XXIII-6]
PC-3 cell line
  cytotoxic activity, in words: negligible cytotoxic activity
[1]; 0.2, 2, 20 μmol/l, 14 days
  inhibition of clonogenic growth of normal stem cells (mielotoxicity), in words: does not seem to exert significant mielotoxicity; also recorded: weak cytostatic activity
[1]; hematopoietic precursors, highest concentration tested 20 μmol/l
  GI50: not being able to reach GI50 value
LNCaP-AR cells; Homo sapiens, LNCaP/AR, 144 h
  GI50: 9.8 µM
LNCaP-AR cells; LNCaP-AR cells, 144 h exposure, up to 20 μM
  LC50: n.r.
LNCaP-AR cells; LNCaP-AR, 144 h, up to 20 μM
  cytotoxic effect (cytostatic / cytocidal), in words: suppress completely the cell growth
DU145 cell line
  cytotoxic activity, in words: negligible cytotoxic activity

Reference: patent publication US8741951B2, “Non-steroidal compounds for androgen receptor modulation” (CNR—Consiglio Nazionale delle Ricerche, priority 2009, dated 2014)
